Experimental data published in BindingDB's records for patent WO2025064535 (Deep Apple Therapeutics, 2025).

Key:
[1] = target: T1, Mas-related G-protein coupled receptor member X2 (Homo sapiens, UniProt Q96LB1); assay: LAD2 Degranulation Assay (Protocol 2)
T1 sequence (Q96LB1 whole entry): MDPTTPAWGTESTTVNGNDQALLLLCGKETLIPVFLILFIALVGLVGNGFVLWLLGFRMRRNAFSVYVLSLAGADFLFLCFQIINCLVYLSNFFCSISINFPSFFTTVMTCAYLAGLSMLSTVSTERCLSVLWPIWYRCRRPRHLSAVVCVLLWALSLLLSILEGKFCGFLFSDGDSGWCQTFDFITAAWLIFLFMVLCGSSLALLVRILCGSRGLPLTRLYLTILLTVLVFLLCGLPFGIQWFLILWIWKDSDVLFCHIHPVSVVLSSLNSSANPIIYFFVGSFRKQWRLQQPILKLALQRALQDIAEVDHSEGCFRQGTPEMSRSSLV
Protocol: LAD-2 cells were maintained at 37 °C with 5% CO2 and grown in complete StemPro-34 media supplemented with 1% L-Glutamate, 1% penicillin/streptomycin, and 250 ng/mL human SCF. 18-24 hours prior to experiment, LAD-2 cells were collected and transferred to growth media without SCF. […] For dose-response assays, compounds solubilized in 100% DMSO at 30 mM were serially diluted (1:3) first in 100% DMSO, and 2 intermediate dilutions with assay buffer were used to establish a final top concentration of 3 ^M (in assay plate). […] Final DMSO concentration was kept constant at 0.1% across plates for all assays. Cortistatin-14 at 30 mM stock concentration was solubilized in HBSS + 0.1% BSA, stored at -20°C in 5 ^L aliquots and discarded after one freeze-thaw cycle. Final concentration of agonist used in both dose-response and single point assays was 0.5 ^M, prepared in assay buffer. Antagonist equilibrium was established with 2 h preincubation, followed by no wash, direct addition, and stimulation of agonist for 30 minutes at 37 °C. For detection of ^-hexosaminidase activity, assay plates were centrifuged and 5 ^L of cell-free supernatant from each assay well was transferred to a black-walled black-bottomed 384-well plate. Substrate solution (1 mM 4-Methylumbelliferyl N-acetyl-β-D-glucosaminide in citrate buffer, pH=4.5, 15 ^l) was added to each well and plates were incubated for 1 hour at 37 °C. […] Background-subtracted data was analyzed using either GraphPad Prism or a custom Python script to calculate IC50 using either Log[Antagonist] vs. response (4 parameter) nonlinear regression (dose-response assays).

[2] = target: T1, Mas-related G-protein coupled receptor member X2; assay: MRGPRX2 Activity Assay
Protocol: FlpIn TRex-MRGPRX2-HEK293 cells (herein TRex-MRPGRX2-HEK) stably transfected to express human MRGPRX2 were maintained at 37 °C with 5% CO2 and grown in DMEM supplemented with 10% FBS, 1% L-Glutamate, 1% penicillin/streptomycin, 100ug/mL Hygromycin B, and 15 µg/mL Blasticidin. GOI (MRGPRX2) expression was induced with 100ng/mL of Doxycycline 18-24 hours prior to experiment, in flask. On the day of experiment, cells were lifted with TripLE Express and seeded in 384-well white walled opaque bottomed, assay plates, at 8,000 cells per well in 5 µL freshly made assay buffer (HBSS, 20 mM HEPES, 0.1% BSA and 10 mM LiCl). Compounds solubilized in 100% DMSO at 30 mM were serially diluted (1:4) first in 100% DMSO, and an intermediate plate of assay buffer was used to establish a final top concentration of 30 µM (in assay plate). Final DMSO concentration was kept constant at 1% across assay plates. Cortistatin-14, at 30 mM stock concentration was solubilized in HBSS + 0.1% BSA, stored at -20°C in 5 µL aliquots and discarded after one freeze-thaw cycle. […] Antagonist equilibrium was established with 30 minutes preincubation, followed by no wash, direct addition, and stimulation of agonist for 1 hour at 37 °C / 5% CO2. IP-1 standards and HTRF detection reagents were added according to the IP-one Gq kit protocol purchased from CisBio (part number 62IPAPEJ). The plate was read on an EnVision XCite plate reader. The HTRF ratio was then calculated from raw data (channel1/channel2 ×10,000) and analyzed using either GraphPad Prism or a custom Python script to calculate IC50 using Log[Antagonist] vs. response (4 parameter) nonlinear regression.

[3] = target: T1, Mas-related G-protein coupled receptor member X2; assay: LAD2 Degranulation Assay (Protocol 1)
Protocol: LAD-2 cells were maintained at 37 °C with 5% CO2 and grown in complete StemPro-34 media supplemented with 1% L-Glutamate, 1% penicillin/streptomycin, and 250 ng/mL human SCF. On the day of experiment, cells were collected by centrifugation and seeded in 384-well assay plates, at 4,000 cells per well in 10 ^l freshly made assay buffer (10 mM HEPES, 130 mM NaCl, 5 mM KCl, 1.8 mM CaCl2, 1.0 mM MgCl2, 5.6 mM glucose, 0.1% BSA, pH = 7.40). For dose-response assays, compounds solubilized in 100% DMSO at 30 mM were serially diluted (1:3) first in 100% DMSO, and 2 intermediate dilutions with assay buffer were used to establish a final top concentration of 3 ^M (in assay plate). Final DMSO concentration was kept constant at 0.1% across plates for all assays. Cortistatin-14 at 30 mM stock concentration was solubilized in HBSS + 0.1% BSA, stored at -20°C in 5 ^L aliquots and discarded after one freeze-thaw cycle. Final concentration of agonist used in both dose-response and single point assays was 1 ^M, prepared in assay buffer. Antagonist equilibrium was established with 30 minute preincubation, followed by no wash, direct addition, and stimulation of agonist for 30 minutes at 37 °C. For detection of ^-hexosaminidase activity, assay plates were centrifuged and 5 ^l of cell-free supernatant from each assay well was transferred to a black-walled black-bottomed 384-well plate. Substrate solution (1 mM 4-Methylumbelliferyl N-acetyl-β-D-glucosaminide in citrate buffer, pH=4.5, 15 ^l) was added to each well and plates were incubated for 1 hour at 37 °C. […] Background-subtracted data was analyzed using either GraphPad Prism or a custom Python script to calculate IC50 using either Log[Antagonist] vs. response (4 parameter) nonlinear regression (dose-response assays).

IC50 [1]	IC50 [2]	IC50 [3]	Compound
	87 nM	346 nM	CNCc1cc([C@@H]2CN([C@@H](C)C(=O)Nc3nc4cc5c(cc4s3)OC(F)(F)O5)CCC2(F)F)cc[n+]1[O-] [WO2025064535, Compound 102]
27 nM	15 nM		C[C@@H](C(=O)Nc1nc2cc3c(cc2s1)OC(F)(F)O3)N1CCC(F)(F)[C@H](c2ccc(=O)[nH]c2)C1 [WO2025064535, Compound 32]
	> 30000 nM	> 3000 nM	CNCc1cc([C@H]2CN([C@@H](C)C(=O)Nc3nc4cc5c(cc4s3)OC(F)(F)O5)CCC2(F)F)c[nH]c1=O [WO2025064535, Compound 86]
	41 nM	223 nM	CNCc1cc([C@@H]2CN([C@@H](C)C(=O)Nc3nc4cc5c(cc4s3)OC(F)(F)O5)CCC2(F)F)c[nH]c1=O [WO2025064535, Compound 87]
	> 30000 nM		C[C@@H](C(=O)Nc1nc2cc3c(cc2s1)OC(F)(F)O3)N1CCC(F)(F)[C@H](c2cc[n+]([O-])c([C@@H](O)CO)c2)C1 [WO2025064535, Compound 52]
	509 nM		C[C@@H](C(=O)Nc1nc2cc3c(cc2s1)OC(F)(F)O3)N1CCC(F)(F)[C@H](c2ncn[nH]2)C1 [WO2025064535, Compound 105]
6.6 nM	7.8 nM		C[C@@H](C(=O)Nc1nc2cc3c(cc2s1)OC(F)(F)O3)N1CCC(F)(F)[C@H](c2cc[n+]([O-])c([C@H](O)CO)c2)C1 [WO2025064535, Compound 54]
	> 30000 nM		C[C@@H](C(=O)Nc1nc2cc3c(cc2s1)OC(F)(F)O3)N1CCC(F)(F)[C@@H](c2cc[n+]([O-])c(CN)c2)C1 [WO2025064535, Compound 64]
	> 30000 nM		C[C@@H](C(=O)Nc1nc2cc3c(cc2s1)OC(F)(F)O3)N1CCC(F)(F)[C@@H](c2ccc(=O)[nH]c2)C1 [WO2025064535, Compound 31]
	3430 nM		CNCc1cc([C@H]2CN([C@@H](C)C(=O)Nc3nc4cc5c(cc4s3)OC(F)(F)O5)CCC2(F)F)cc[n+]1[O-] [WO2025064535, Compound 101]
	> 30000 nM		C[C@@H](C(=O)Nc1nc2cc3c(cc2s1)OC(F)(F)O3)N1CCC(F)(F)[C@@H](c2c[nH]c(=O)c([C@H](O)CO)c2)C1 [WO2025064535, Compound 44]
52 nM	14 nM		C[C@@H](C(=O)Nc1nc2cc3c(cc2s1)OC(F)(F)O3)N1CCC(F)(F)[C@@H](c2c[nH]c(=O)cn2)C1 [WO2025064535, Compound 34]

More lines, now with the values behind:

Compound	IC50 [1]	IC50 [2]	IC50 [3]
C[C@@H](C(=O)Nc1nc2cc3c(cc2s1)OC(F)(F)O3)N1CCC[C@@H](c2cc[n+]([O-])cc2)C1 [WO2025064535, Compound 49]	> 3000 nM	> 30000 nM	
C[C@@H](C(=O)Nc1nc2cc3c(cc2s1)OCCO3)N1CCC(F)(F)[C@@H](c2ccc(=O)[nH]c2)C1 [WO2025064535, Compound 29]	20 nM	8.6 nM	
C[C@@H](C(=O)Nc1nc2cc3c(cc2s1)OC(F)(F)O3)N1CC[C@H](F)[C@@H](c2cc[n+]([O-])cc2)C1 [WO2025064535, Compound 38]	72 nM	32 nM	
C[C@@H](C(=O)Nc1nc2cc3c(cc2s1)OC(F)(F)O3)N1CCC(F)(F)[C@H](c2c[nH]c(=O)c(CN3CCC(F)(F)CC3)c2)C1 [WO2025064535, Compound 69]		169 nM	
C[C@@H](C(=O)Nc1nc2cc3c(cc2s1)OC(F)(F)O3)N1CCC(F)(F)[C@H](c2c[nH]c(=O)c([C@@H](O)CO)c2)C1 [WO2025064535, Compound 43]	7.4 nM	11 nM	
C[C@@H](C(=O)Nc1nc2cc3c(cc2s1)OC(F)(F)O3)N1CC[C@@H](F)[C@H](c2cc[n+]([O-])cc2)C1 [WO2025064535, Compound 37]		> 30000 nM	
C[C@@H](C(=O)Nc1nc2cc3c(cc2s1)CCC3)N1CCC(F)(F)[C@@H](c2ccc(=O)[nH]c2)C1 [WO2025064535, Compound 27]		292 nM	
C[C@@H](C(=O)Nc1nc2cc3c(cc2s1)OC(F)(F)O3)N1CC[C@H](F)[C@H](c2cc[n+]([O-])cc2)C1 [WO2025064535, Compound 39]		223 nM	
C[C@@H](C(=O)Nc1nc2cc3c(cc2s1)OC(F)(F)O3)N1CCC(F)(F)[C@H](c2c[nH]c(=O)c([C@@H](N)C(F)F)c2)C1 [WO2025064535, Compound 24]		> 30000 nM	
C[C@@H](C(=O)Nc1nc2cc3c(cc2s1)CCC3)N1CCC(F)(F)CC1 [WO2025064535, Compound 18]		85 nM	
C[C@@H](C(=O)Nc1nc2cc3c(cc2s1)OC(F)(F)O3)N1CCC[C@@H](CO)C1 [WO2025064535, Compound 7]		1130 nM	
C[C@@H](C(=O)Nc1nc2cc3c(cc2s1)OCCO3)N1CCC(F)(F)[C@@H](c2c[nH]c(=O)cn2)C1 [WO2025064535, Compound 40]		770 nM	
C[C@@H](C(=O)Nc1nc2cc3c(cc2s1)OC(F)(F)O3)N1CC[C@@H](F)[C@@H](c2cc[n+]([O-])cc2)C1 [WO2025064535, Compound 36]		> 30000 nM	
C[C@@H](C(=O)Nc1nc2cc3c(cc2s1)OCCO3)N1CCC(F)(F)[C@H](c2c[nH]c(=O)cn2)C1 [WO2025064535, Compound 41]	23 nM	5.9 nM	
C[C@@H](C(=O)Nc1nc2cc3c(cc2s1)OC(F)(F)O3)N1CCC(F)(F)[C@H](c2c[nH]c(=O)cn2)C1 [WO2025064535, Compound 35]		1020 nM	
C[C@@H](C(=O)Nc1nc2cc3c(cc2s1)CCC3)N1CCC(F)(F)[C@H](c2ccc(=O)[nH]c2)C1 [WO2025064535, Compound 28]	144 nM	18 nM	
C[C@@H](C(=O)Nc1nc2cc3c(cc2s1)OC(F)(F)O3)N1CCC(F)(F)[C@@H](c2c[nH]c(=O)c([C@@H](O)CO)c2)C1 [WO2025064535, Compound 42]		> 30000 nM	
C[C@@H](C(=O)Nc1nc2cc3c(cc2s1)OCCO3)N1CCC(F)(F)[C@H](c2ccc(=O)[nH]c2)C1 [WO2025064535, Compound 30]		1070 nM	
C[C@@H](C(=O)Nc1cc2cc3c(cc2s1)OC(F)(F)O3)N1CCC(F)(F)[C@@H](c2c[nH]c(=O)c([C@H](N)C(F)(F)F)c2)C1 [WO2025064535, Compound 14]		12800 nM	
